Measurements from US20070232595A1, “Method for accelerating cutaneous barrier recovery” (Shiseido Company, Ltd., priority 2006, published 2007).

What was measured:
[1] = test system: Normal human epithelial keratinocytes (NHEK); assay: Ca2+ imaging (fura-2) in single cultured keratinocytes; type: cell-based
Protocol: Normal human epithelial keratinocytes (NHEK) were purchased from Kurabo (Osaka, Japan). NHEK were cultured in serum-free keratinocyte growth medium, consisting of Humedia-KB2 (Kurabo, Osaka, Japan) supplemented with bovine pituitary extract (0.4% vol/vol), human recombinant epidermal growth (0.1 μg per mL), insulin (10 μg per mL), and hydrocortisol (0.5 μg per mL). The medium was replaced every 2-3 d. For the electrophysiological experiments, NHEK (passage 1-3 cells) were seeded onto collagen-coated glass coverslips and used within 4 d. Ca^2+ imaging in single keratinocytes
NHEK were grown to approximately 80-100% confluency on collagen-coated cover glass chambers (Nalge Nunc, Naperville, Ill.). Changes in [Ca^2+] in single cells were measured by the fura-2 method as described by Grynkiewicz et al. (1985) with minor modifications(Koizumi et al, 1998). In brief, the culture medium was replaced with a balanced salt solution (BSS) of the following composition (mM): NaCl 150, KCl 5, CaCl21.8, MgCl2 1.2, HEPES 25, NaH2PO4 1.2 and D-glucose 10 (pH 7.4) or calcium-free BSS which had the same composition as the above BSS with 1 mM EGTA and no added CaCl2. Cells were loaded with 5 μM fura-2 acetoxymethylester (fura-2AM, Molecular Probes, Eugene, Oreg.) at room temperature (21-23° C.) in BSS for 45 min, washed with BSS, and incubated for a further 30 min to allow de-esterification of the loaded dye. The cover slip was mounted on an inverted epifluorescence microscope (IX70, TS Olympus, Tokyo, Japan), equipped with a 75 W xenon lamp and band-pass filters of 340 and 380 nm. The image data, recorded by a high-sensivity CCD (charge-coupled-device) camera (ORCA-ER, Hamamatsu Photonics, Hamamatsu, Japan) were evaluated with a Ca^2+ analyzing system (AQUACOSMOS/RATIO, Hamamatsu Photonics). SNAP (300 μM), ODQ (10 μM) and nifedipine (50 μM) were dissolved in the BSS and the cells were exposed to the solution by perfusion. We observed four lots of pooled cells for each treatment. […] Data were represented as the ratio of fluorescence intensities at 340 and 380 nm.

hairless mice [2] = assay: Skin barrier recovery (TEWL) after tape stripping with topical application; type: in vivo, mouse
Protocol: Permeability barrier function was evaluated by measurement of transepidermal water loss (TEWL) with an electric water analyzer, as described previously(Denda et al, 1998). For barrier recovery experiments, the flank skin on both sides was subjected to repeated tape stripping until the TEWL reached 7-10 mg per cm^2 per h, as described previously(Denda et al, 1998). As for nNOS-deficient mice and wild-type, the TEWL of the ears was measured over the same sites at 1, 3 and 6 hours after tape stripping. This is because the hair shaving may induce barrier disruption. Therefore, the ears that are hairless parts were selected for TEWL measurements. […] […] The areas were covered with plastic membranes for 15 min and then the membranes were removed. Two points on one flank were measured and 4-8 mice were used to evaluate the effect of each treatment. We always disrupted the barrier between 7:00 AM and 8:00 AM and carried out the measurements of the barrier repair thereafter to avoid the influence of circadian rhythm on the repair rate(Denda and Tsuchiya, 2000). TEWL was measured over the same sites at 1, 3 and 6 hours after barrier disruption. The barrier recovery results are expressed as percent recovery, because of variations from day to day in the extent of barrier disruption. In each animal, the percentage recovery was calculated according to the following formula:

hairless mice [3] = assay: Epidermal hyperplasia induced by barrier disruption (acetone) under low humidity; type: in vivo, mouse; settings: for epidermal proliferation (number of BrdU-positive cells, DNA synthesis) / epidermal thickness: topical application after acetone treatment under low humidity, compared with acetone treated skin; for epidermal hyperplasia induced by acetone treatment under low environmental humidity: topical application, 1 µM, 48 hours in dry condition
Protocol: Hairless mice were kept separately in 7.2-liter cages in which the relative humidity was maintained at less than 10% with dry air as described previously(Denda et al, 1998). The temperature was the same in all cases (22-25° C.), and fresh air was circulated 100 times per hour. Animals were kept out of the direct stream of air. During the experiments, the animal's behavior was not restricted. The level of NH3 was always below 1 ppm. Animals were first kept in a dry condition for 48 hours and then the skin on both flanks was treated with acetone-soaked cotton balls, as described previously(Denda et al, 1998). The procedure was terminated when TEWL reached 2.5-3.5 mg per cm^2 per h. Immediately after the barrier disruption, 100 μl of nNOS inhibitor and ODQ aqueous solution (1 μM) was applied on one side of the treated area. Water was applied on the other side. Then the animals were again kept in the dry condition for 48 hours. After the experiments, animals were euthanized with diethylether inhalation and skin samples were taken from the treated areas. One hour before euthanization, 20 μl per g body weight of a 10 mM solution of bromodeoxyuridine (BrdU) was injected intraperitoneally. Untreated control mice were also treated with BrdU at the same time. After fixation with 4% paraformaldehyde, full thickness skin samples were embedded in paraffin, sectioned (4 μm), and processed for hematoxylin and eosin staining. On each section, five areas were selected at random; the thickness of the epidermis was measured with an optical micrometer, and the mean value was calculated. For the assessment of DNA synthesis, the sections were immunostained with anti-BrdU antibodies. On each section, five areas were selected at random from one section; the number of immunostained cells per 1 mm of epidermis was counted and the epidermal thickness was measured with an optical micrometer. The mean value was calculated. Measurements were carried out in an observer-blinded fashion. NO evaluation in hairless mouse epidermis

skin of hairless mice = assay: NO release from skin organ culture after tape stripping; set-up: species or system mouse; settings: pre-incubation with inhibitor 100 μM; skin organ culture in PBS, 30 min at 37° C.
From the text: Four male hairless mice (7-10 wk old) were killed by cervical dislocation under anesthesia and skin samples were taken immediately from both flanks. Subcutaneous fat was removed with a scalpel and the skin samples that contained epidermis and dermis, were cut into squares (1.5×1.5 cm^2). […] of skin from the two flanks of each animal were placed, epidermis side upwards, in separate 35-mm culture dishes kept in an ice/water bath, and one of them was tape-stripped four times. The other piece of skin was not treated. One milliliter of phosphate-buffered saline (PBS) was added to both dishes, which were incubated for 30 min at 37° C. After the incubation, 50 μL aliquots of the PBS were removed. NO released into the PBS was quantified using a total nitric oxide assay kit (Immuno-Biological Laboratories Co., Ltd, Gunma, Japan), according to the manufacturer's instruction.

[4] = topical application of 1 μM aqueous solution, 1, 3 and 6 hours after tape stripping, vs water control

CC(=O)NC(C(=O)O)C(C)(C)SN=O (racemic) [SNAP, S-nitroso-N-acetyl-D,L-penicillamine]
intracellular calcium concentration (ratio 340 nm/380 nm, fura-2) ([1]; 300 μM SNAP, calcium-containing BSS): increased | intracellular calcium concentration (ratio 340 nm/380 nm, fura-2) ([1]; SNAP, calcium-free medium): an increase of [Ca^2+] was induced | barrier recovery after tape stripping (percent recovery of TEWL) (hairless mice [2]; topical application of one millimolar solution of SNAP, vs control): delayed skin barrier recovery

COC(=O)[C@@H](N)CCCNC(=N)N[N+](=O)[O-] [L-NAMA, L-N(G)-nitro-L-arginine methyl ester]
barrier recovery after tape stripping (percent recovery of TEWL) (hairless mice [2]; [4]): accelerated the barrier repair

O=c1onc2n1-c1cc(Br)ccc1OC2 [NS 2028, 4H-8-bromo-1,2,4-oxadiazolo[3,4-dibenz[b][1,4]oxazin-1-one]
barrier recovery after tape stripping (percent recovery of TEWL) (hairless mice [2]; [4]): accelerated the barrier recovery

O=c1onc2cnc3ccccc3n12 [ODQ, 1H-[1,2,4]oxadiazolo[4,3-a]quinoxalin-1-one]
effect on increase of intracellular calcium induced by SNAP ([1]; 300 μM SNAP with 10 μM ODQ or 50 μM nifedipine): blocked | barrier recovery after tape stripping (percent recovery of TEWL) (hairless mice [2]; [4]): accelerated the barrier recovery | epidermal proliferation (number of BrdU-positive cells, DNA synthesis) (hairless mice [3]): Significant reductions | epidermal thickness (hairless mice [3]): Significant reductions | epidermal hyperplasia induced by acetone treatment under low environmental humidity (hairless mice [3]): prevented the hyperplasia

Nc1c[n+](N2CCOCC2)no1.[Cl-] [SIN, SIN-1 chloride]
barrier recovery after tape stripping (percent recovery of TEWL) (hairless mice [2]; [4]): delayed the barrier recovery

CSC(=N)N [iNOS inhibitor, S-methylisothiourea]
increase of NO level (release) after tape stripping (skin of hairless mice): did not affect | barrier recovery after tape stripping (percent recovery of TEWL) (hairless mice [2]; [4]): did not affect the barrier recovery

CCCNC(=N)NCCC[C@H](N)C(=O)O [nNOS inhibitor, N^ω-propyl-L-arginine]
increase of NO level (release) after tape stripping (skin of hairless mice): blocked | barrier recovery after tape stripping (percent recovery of TEWL) (hairless mice [2]; [4]): accelerated the barrier repair | epidermal proliferation (number of BrdU-positive cells, DNA synthesis) (hairless mice [3]): Significant reductions | epidermal thickness (hairless mice [3]): Significant reductions | epidermal hyperplasia induced by acetone treatment under low environmental humidity (hairless mice [3]): prevented the epidermal hyperplasia
